Test results: patent publication US8765730B2 (Hoffmann-La Roche Inc, priority 2010, dated 2014)

Molecular target: T1, human GPBAR1 receptor (Homo sapiens, UniProt Q8TDU6)
T1 construct: expressed in transfected cells
T1 sequence (Q8TDU6 1-330): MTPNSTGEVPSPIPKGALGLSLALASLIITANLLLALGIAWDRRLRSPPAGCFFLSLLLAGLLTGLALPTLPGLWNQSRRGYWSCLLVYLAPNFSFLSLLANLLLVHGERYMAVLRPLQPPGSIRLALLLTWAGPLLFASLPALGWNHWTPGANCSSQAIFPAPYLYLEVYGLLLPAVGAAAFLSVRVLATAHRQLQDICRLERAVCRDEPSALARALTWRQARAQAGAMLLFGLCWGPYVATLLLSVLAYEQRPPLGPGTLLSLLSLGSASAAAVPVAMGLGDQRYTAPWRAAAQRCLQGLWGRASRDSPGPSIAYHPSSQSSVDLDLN
Assay: functional cAMP assay in CHO-dhfr(minus) cells expressing human GPBAR1 receptors
Format: cell-based
Details: human EC50, functional cAMP assay, 30 min at 30° C.
Summary of the method: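 Agonist cAMP read-out: stable GPBAR1 CHO-dhfr− clone, 30 min compound exposure at 30° C following 30 min IBMX (1 mM) preincubation in Krebs Ringer bicarbonate. Time-resolved energy-transfer detection gives EC50; parental CHO cells serve as counter-screen.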

Row | EC50 [µM] | SMILES
1 | 0.095 | Cc1cc(Cl)ccc1[C@H](C/C(=N\O)c1ccc(=O)n(C)c1)c1ccc(-c2ccc(C(=O)O)cc2)cc1 (single isomer, unassigned) [Example 393, (+)-4′-[1-(4-Chloro-2-methyl-phenyl)-3-[(E)-hydroxyimino]-3-(1-methyl-6-oxo-1,6-dihydro-pyridin-3-yl)-propyl]-biphenyl-4-carboxylic acid; compound with triethylamine 1:0.9]
2 | 0.81 | Cc1ccccc1C(C/C(=N\O)c1ccc(=O)n(C)c1)c1ccc(C(=O)NCC(=O)O)cc1 (stereo not shown) [Example 215, {4-[3-[(E)-Hydroxyimino]-3-(1-methyl-6-oxo-1,6-dihydro-pyridin-3-yl)-1-o-tolyl-propyl]-benzoylamino}-acetic acid]
3 | 0.32 | Cc1ccccc1C(C/C(=N\O)c1ccc(=O)n(C)c1)c1ccc(C(=O)N[C@@H](C)CO)cc1 (stereo partly drawn) [Example 302, 4-((E)-3-(Hydroxyimino)-3-(1-methyl-6-oxo-1,6-dihydropyridin-3-yl)-1-o-tolylpropyl)-N—((S)-1-hydroxypropan-2-yl)benzamide]
4 | 0.008 | Cc1cc(F)ccc1[C@@H](C/C(=N\O)c1ccc(=O)n(C)c1)c1ccc(Br)cc1 (single isomer, unassigned) [Example 405, (+)-5-{3-(4-Bromo-phenyl)-3-(4-fluoro-2-methyl-phenyl)-1-[(E)-hydroxyimino]-propyl}-1-methyl-1H-pyridin-2-one]
5 | 2.3 | Cc1cc(Cl)ccc1C(C/C(=N\O)c1ccc(=O)n(C)c1)c1ccc(C(=O)O)cc1 (stereo not shown) [Example 361, 4-[1-(4-Chloro-2-methyl-phenyl)-3-[(E)-hydroxyimino]-3-(1-methyl-6-oxo-1,6-dihydro-pyridin-3-yl)-propyl]-benzoic acid]
6 | 0.055 | Cc1cc(Cl)ccc1C(C/C(=N\O)c1ccc(=O)n(C)c1)c1ccc(-c2ccc(C(=O)O)cc2)cc1 (stereo not shown) [Example 227, (E)-4′-(1-(4-Chloro-2-methylphenyl)-3-(hydroxyimino)-3-(1-methyl-6-oxo-1,6-dihydropyridin-3-yl)propyl)biphenyl-4-carboxylic acid]
7 | 0.011 | Cn1cc(/C(CC(c2ccc(Br)cc2)c2ccc(F)cc2Cl)=N/O)ccc1=O (stereo not shown) [Example 410, (E)-5-(3-(4-bromophenyl)-3-(2-chloro-4-fluorophenyl)-1-(hydroxyimino)propyl)-1-methylpyridin-2(1H)-one]
8 | 0.48 | Cc1cc(Cl)ccc1C(C/C(=N\O)c1ccc(=O)n(C)c1)c1ccc(-c2ccc(C#N)cc2)cc1 (stereo not shown) [Example 251, (E)-4′-(1-(4-Chloro-2-methylphenyl)-3-(hydroxyimino)-3-(1-methyl-6-oxo-1,6-dihydropyridin-3-yl)propyl)biphenyl-4-carbonitrile]
9 | 0.375 | CCCC(C/C(=N\O)c1ccc(=O)n(C)c1)c1ccc(Br)cc1F (stereo not shown) [Example 191, 5-{3-(4-Bromo-2-fluoro-phenyl)-1-[(E)-hydroxyimino]-hexyl}-1-methyl-1H-pyridin-2-one]
10 | 0.084 | Cn1cc(/C(CC(c2ccc(S(C)(=O)=O)cc2)c2ccc(Cl)cc2F)=N/O)ccc1=O (stereo not shown) [Example 314, (E)-5-(3-(4-chloro-2-fluorophenyl)-1-(hydroxyimino)-3-(4-(methylsulfonyl)phenyl)propyl)-1-methylpyridin-2(1H)-one]
11 | 0.129 | Cn1cc(/C(CC(c2ccc(S(C)(=O)=O)cc2)c2cc(Cl)ccc2Cl)=N/O)ccc1=O (stereo not shown) [Example 350, (E)-5-(3-(2,5-Dichlorophenyl)-1-(hydroxyimino)-3-(4-(methylsulfonyl)phenyl)propyl)-1-methylpyridin-2(1H)-one]
12 | 0.116 | Cc1ccccc1C(C/C(=N\O)c1ccn(C)c(=O)c1)c1ccc(Br)cc1 (stereo not shown) [Example 110, 4-{3-(4-Bromo-phenyl)-1-[(E)-hydroxyimino]-3-o-tolyl-propyl}-1-methyl-1H-pyridin-2-one]

More lines, now with the values behind:

Row | SMILES | EC50 [µM]
13 | CCS(=O)(=O)c1ccc(-c2ccc(C(C/C(=N\O)c3ccncc3)c3ccccc3)cc2)cc1 (stereo not shown) [Example 26, (E)-3-(4′-Ethanesulfonyl-biphenyl-4-yl)-3-phenyl-1-pyridin-4-yl-propan-1-one oxime] | 0.108
14 | Cc1cc(/C(C[C@H](c2ccc([C@H]3CC[C@H](C(=O)O)CC3)cc2)c2ccc(Cl)cc2C)=N/O)ccn1 [Example 504, Trans-4-(4-((R,E)-1-(4-Chloro-2-methylphenyl)-3-(hydroxyimino)-3-(2-methylpyridin-4-yl)propyl)phenyl)cyclohexanecarboxylic acid] | 0.028
15 | Cc1cnc(F)cc1C(CC(c1ccccc1)c1ccccc1)=NO (racemic) [Example 59, 1-(2-Fluoro-5-methyl-pyridin-4-yl)-3,3-diphenyl-propan-1-one oxime] | 0.017
16 | Cc1cc(C(CC(c2ccc(-c3ccc(C(=O)O)c(Cl)c3)cc2)c2ccccc2C)=NO)ccn1 (racemic) [Example 84, 3-Chloro-4′-[3-[hydroxyimino]-3-(2-methyl-pyridin-4-yl)-1-o-tolyl-propyl]-biphenyl-4-carboxylic acid] | 0.027
17 | Cc1ccccc1C(C/C(=N\O)c1ccncc1)c1ccc(-c2cncnc2)cc1 (single isomer, unassigned; (-)) [Example 36, (−)-(E)-1-pyridin-4-yl-3-(4-pyrimidin-5-yl-phenyl)-3-o-tolyl-propan-1-one oxime] | 0.011
18 | Cc1ccccc1C(C/C(=N\O)c1ccncc1)c1ccc(-c2cncnc2)cc1 (single isomer, unassigned; (+)) [Example 35, (+)-(E)-1-Pyridin-4-yl-3-(4-pyrimidin-5-yl-phenyl)-3-o-tolyl-propan-1-one oxime] | 0.067
19 | O/N=C(\CC(c1ccccc1)c1ccc(Br)cc1)c1cc(Cl)nc(Cl)c1 (stereo not shown) [Example 47, (E)-3-(4-Bromo-phenyl)-1-(2,6-dichloro-pyridin-4-yl)-3-phenyl-propan-1-one oxime] | 0.548
20 | Cc1cc(/C(CC(c2ccc(-c3ccc(S(C)(=O)=O)cc3)cc2)c2ccccc2C(F)(F)F)=N/O)ccn1 (stereo not shown) [Example 133, (E)-3-(4′-Methanesulfonyl-biphenyl-4-yl)-1-(2-methyl-pyridin-4-yl)-3-(2-trifluoromethyl-phenyl)-propan-1-one oxime] | 0.114
21 | Cc1ccccc1C(C/C(=N\O)c1ccc(=O)n(C)c1)c1ccc(C(=O)NC(CO)CO)cc1 (stereo not shown) [Example 304, (E)-N-(1,3-Dihydroxypropan-2-yl)-4-(3-(hydroxyimino)-3-(1-methyl-6-oxo-1,6-dihydropyridin-3-yl)-1-o-tolylpropyl)benzamide] | 0.506
22 | CN(C)c1ccc(C(CC(=NO)c2ccncc2)c2c[nH]c3ccccc23)cc1 (racemic) [Example 62, 3-(4-Dimethylamino-phenyl)-3-(1H-indol-3-yl)-1-pyridin-4-yl-propan-1-one oxime] | 2.71
23 | Cc1cc(C(=O)O)ccc1-c1ccc([C@@H](C/C(=N\O)c2ccc(=O)n(C)c2)c2ccc(Cl)cc2F)cc1 (single isomer, unassigned) [Example 465, 4′-[(−)-1-(4-Chloro-2-fluoro-phenyl)-3-[(E)-hydroxyimino]-3-(1-methyl-6-oxo-1,6-dihydro-pyridin-3-yl)-propyl]-2-methyl-biphenyl-4-carboxylic acid] | 0.35
24 | Cc1cc(Cl)ccc1C(C/C(=N\O)c1ccc(=O)n(C)c1)c1ccc(Oc2cccc(C(=O)O)c2)cc1 (stereo not shown) [Example 346, 3-{4-[1-(4-Chloro-2-methyl-phenyl)-3-[(E)-hydroxyimino]-3-(1-methyl-6-oxo-1,6-dihydro-pyridin-3-yl)-propyl]-phenoxy}-benzoic acid] | 0.042
25 | Cc1cc(/C(C[C@H](c2ccc(N3C[C@@H]4C(C(=O)O)[C@@H]4C3)cc2)c2ccc(F)cc2F)=N/O)ccn1 (single isomer, unassigned) [Example 429] | 0.002
26 | COCCc1nnc(-c2ccc([C@@H](C/C(=N\O)c3ccnc(C)c3)c3ccccc3C)cc2)o1 [Example 420, ((−), E)-3-{4-[5-(2-Methoxy-ethyl)[1,3,4]oxadiazol-2-yl]-phenyl}-1-(2-methyl-pyridin-4-yl)-3-o-tolyl-propan-1-one oxime] | 0.015
27 | Cc1ccccc1C(C/C(=N\O)c1cc(C)c(O)c(C)c1)c1ccc(Br)cc1 (stereo not shown) [Example 152, (E)-3-(4-Bromo-phenyl)-1-(4-hydroxy-3,5-dimethyl-phenyl)-3-o-tolyl-propan-1-one oxime] | 5.12
28 | Cc1cc(/C(C[C@H](c2ccc(N3CCC(C(=O)O)CC3)cc2)c2ccc(Cl)cc2C)=N/O)ccn1 [Example 284, 1-{4-[(R)-1-(4-Chloro-2-methyl-phenyl)-3-[(E)-hydroxyimino]-3-(2-methyl-pyridin-4-yl)-propyl]-phenyl}-piperidine-4-carboxylic acid] | 0.002
29 | Cc1ccccc1C(CC(=NO)c1ccc2ncccc2c1)c1ccc(Br)cc1 (racemic) [Example 125, 3-(4-Bromo-phenyl)-1-quinolin-6-yl-3-o-tolyl-propan-1-one oxime] | 2.21
30 | Cc1cc(/C(CC(c2ccc(-c3ccc(C(=O)O)c(F)c3)cc2)c2ccccc2C(F)(F)F)=N/O)ccn1 (stereo not shown) [Example 135, 3-Fluoro-4′-[3-[(E)-hydroxyimino]-3-(2-methyl-pyridin-4-yl)-1-(2-trifluoromethyl-phenyl)-propyl]-biphenyl-4-carboxylic acid] | 0.029
31 | CCOC(=O)COc1cccc(-c2ccc(C(C/C(=N\O)c3ccncc3)c3ccccc3)cc2)c1 (stereo not shown) [Example 28, (4′-{3-[(E)-Hydroxyimino]-1-phenyl-3-pyridin-4-yl-propyl}-biphenyl-3-yloxy)-acetic acid ethyl ester] | 0.163
